pEC50, pKi: −log10 of the molar value. Like-named read-outs stand apart in the source and are kept apart here. Positions of bridges follow the written chain, without caps; N, C: chain ends. Non-standard residues stand in square brackets, D forms with d. Residues, ends and D or L forms follow the SMILES beside them. dPhe(3-Cl) = N[C@H](Cc1cccc(Cl)c1)C(=O)O; dPhe(2-F) = N[C@H](Cc1ccccc1F)C(=O)O; Orn = NCCC[C@H](N)C(=O)O
Legend:
hMC4-R [1] = molecular target: T1, hMC4-R (Homo sapiens (Human), UniProt P32245); assay: Competitive inhibition binding assay using [I125]-NDP-α-MSH, hMC4-R; settings: membranes of HEK-293 cells expressing recombinant hMC4-R, read-out: MC4-R Ki
T1 sequence (P32245 whole entry): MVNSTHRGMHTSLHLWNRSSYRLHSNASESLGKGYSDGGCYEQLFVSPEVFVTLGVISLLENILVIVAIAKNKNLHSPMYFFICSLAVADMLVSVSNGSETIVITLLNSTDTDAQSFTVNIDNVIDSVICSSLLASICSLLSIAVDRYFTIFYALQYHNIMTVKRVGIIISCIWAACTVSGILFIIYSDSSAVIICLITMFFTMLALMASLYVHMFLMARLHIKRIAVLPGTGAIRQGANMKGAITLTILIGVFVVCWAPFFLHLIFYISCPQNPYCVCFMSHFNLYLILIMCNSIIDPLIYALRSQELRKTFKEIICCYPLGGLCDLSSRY

hMC4-R [2] = molecular target: T1, hMC4-R; assay: High and low density hMC4-R functional assay (cAMP, HEK293-T-REx-MC4-R cells); format: cell-based; settings: for Emax: NDP-α-MSH = 100%, read-out: Intrinsic Activity (%)
[3] = 0.1 ng/mL Doxycycline (low density hMC4-R system)
[4] = 10 ng/mL Doxycycline (high density hMC4-R system)

Row | pKi (hMC4-R [1]) | pEC50 (hMC4-R [2]; [3]) | Emax (hMC4-R [2]; [3]) [%] | pEC50 (hMC4-R [2]; [4]) | Emax (hMC4-R [2]; [4]) [%] | SMILES
1 | 8.70 | 8.70 | 24 | 9.63 | 100 | CC(=O)N[C@@H](CCCNC(=N)N)C(=O)N[C@H]1CCCNC(=O)CC[C@@H](C(N)=O)NC(=O)[C@H](Cc2c[nH]c3ccccc23)NC(=O)[C@H](CCCNC(=N)N)NC(=O)[C@@H](Cc2cc(F)c(F)c(F)c2)NC(=O)[C@H](CC(N)=O)NC1=O [Example 96, Ac-Arg-cyclo(Orn-Asn-D-Phe(3,4,5-triF)-Arg-Trp-Glu)-NH2]
2 | 9.30 | 9.15 | 32 | 9.85 | 94 | CC(=O)N[C@@H](CCCNC(=N)N)C(=O)N[C@H]1CCC(=O)NCCC[C@@H](C(N)=O)NC(=O)[C@H](Cc2c[nH]c3ccccc23)NC(=O)[C@H](CCCNC(=N)N)NC(=O)[C@@H](Cc2cccc(Cl)c2)NC(=O)[C@H](CCCNC(N)=O)NC1=O [Example 99, Ac-Arg-cyclo(Glu-Arg-D-Phe(3-Cl)-Arg-Trp-Orn)-NH2]
3 | 8.40 | 8.22 | 27 | – | 93 | CC(=O)N[C@@H](CCCNC(=N)N)C(=O)N[C@H]1CCC(=O)NCCC[C@@H](C(N)=O)NC(=O)[C@H](Cc2c[nH]c3ccccc23)NC(=O)[C@H](CCCNC(=N)N)NC(=O)[C@@H](Cc2cccc(Cl)c2)NC(=O)[C@H](CCCCN)NC1=O [Example 100, Ac-Arg-cyclo(Glu-Lys-D-Phe(3-Cl)-Arg-Trp-Orn)-NH2] (Ac-REK[dPhe(3-Cl)]RW[Orn]-NH2; lactam 2-7)
4 | 9.00 | 9.02 | 36 | 9.85 | 93 | CC(=O)N[C@@H](CCCNC(=N)N)C(=O)N[C@H]1CCC(=O)NCCC[C@@H](C(N)=O)NC(=O)[C@H](Cc2c[nH]c3ccccc23)NC(=O)[C@H](CCCNC(=N)N)NC(=O)[C@@H](Cc2cccc(Cl)c2)NC(=O)[C@H](CCCN)NC1=O [Example 101, Ac-Arg-cyclo(Glu-Orn-D-Phe(3-Cl)-Arg-Trp-Orn)-NH2]
5 | 8.40 | 9.00 | 32 | 9.89 | 100 | CC(=O)N[C@@H](CCCNC(=N)N)C(=O)N[C@H]1CC(=O)NCCCC[C@@H](C(N)=O)NC(=O)[C@H](Cc2c[nH]c3ccccc23)NC(=O)[C@H](CCCNC(=N)N)NC(=O)[C@@H](Cc2ccc(F)cc2)NC(=O)[C@@H]2CCCN2C1=O [Example 103, Ac-Arg-cyclo(Asp-Pro-D-Phe(4-F)-Arg-Trp-Lys)-NH2]
6 | 8.15 | 8.52 | 35 | 9.82 | 94 | CC(=O)N[C@@H](CCCNC(=N)N)C(=O)N[C@H]1CCCNC(=O)CC[C@@H](C(N)=O)NC(=O)[C@H](Cc2c[nH]c3ccccc23)NC(=O)[C@H](CCCNC(=N)N)NC(=O)[C@@H](Cc2ccccc2F)NC(=O)[C@@H]2CCCN2C1=O [Example 105, Ac-Arg-cyclo(Orn-Pro-D-Phe(2-F)-Arg-Trp-Glu)-NH2] (Ac-R[Orn]P[dPhe(2-F)]RWE-NH2; lactam 2-7)
7 | 8.22 | – | 81 | – | 104 | CC(=O)N[C@@H](CCCNC(=N)N)C(=O)N[C@H]1CCCNC(=O)CC[C@@H](C(N)=O)NC(=O)[C@H](Cc2c[nH]c3ccccc23)NC(=O)[C@H](CCCNC(=N)N)NC(=O)[C@@H](Cc2ccccc2C)NC(=O)[C@H](CCC(N)=O)NC1=O [Example 111, Ac-Arg-cyclo(Orn-Gln-D-Phe(2-Me)-Arg-Trp-Glu)-NH2]
8 | 8.40 | – | 83 | 10.15 | 101 | CC(=O)N[C@@H](CCCNC(=N)N)C(=O)N[C@H]1CCCNC(=O)CC[C@@H](C(N)=O)NC(=O)[C@H](Cc2c[nH]c3ccccc23)NC(=O)[C@H](CCCNC(=N)N)NC(=O)[C@@H](Cc2ccccc2Cl)NC(=O)[C@H](CCC(N)=O)NC1=O [Example 112, Ac-Arg-cyclo(Orn-Gln-D-Phe(2-Cl)-Arg-Trp-Glu)-NH2]

Source: US9040663B2, “Melanocortin receptor-specific peptides” (AstraZeneca AB, priority 2009, dated 2015)
